Assay results reported in US12552938B2, “Deuterated fluorophores” (HOWARD HUGHES MEDICAL INSTITUTE, priority 2018, dated 2026).
“Also recorded” adds a separate entry of the source. Counter-ions that a name gives are not always drawn.

Legend:
[1] = spectral properties of free dyes (absorbance, fluorescence emission, ε, Φ, intrinsic brightness); type: physicochemical; settings: 10 mM HEPES pH 7.3; for extinction coefficient (ε) compared to nondeuterated parent / fluorescence quantum yield (Φ) compared to nondeuterated parent / intrinsic brightness (ε×Φ): free dye; for intrinsic brightness (ε×Φ): in vitro
[2] = photobleaching of free dyes in vitro; type: physicochemical; settings: for photobleaching / in vitro photostability compared to nondeuterated parent: free dye, 10 mM HEPES pH 7.3; for blue-shift of fluorescence emission during photobleaching due to dealkylation: spectra taken periodically during photobleaching; for chromostability during bleaching: compared to nondeuterated compounds 15 and 17
[3] = relative singlet oxygen quantum yield of free dyes; type: physicochemical; settings: free dye
HaloTag protein [4] = test: relative singlet oxygen quantum yield of HaloTag-bound ligands; type: physicochemical
HaloTag protein [5] = test: fluorescence quantum yield of HaloTag-bound ligands in vitro; type: physicochemical; settings: attached to HaloTag protein
Experimental: These dyes were then tested as protein conjugates in vitro and in living cells. […] Both J ligands could label HaloTag-histone H2B fusions in living cells (FIG. 24, FIG. 25).

histone H2B-HaloTag = test: fluorescence lifetime in live cells measured using FLIM; type: cell-based; settings: histone H2B-HaloTag-bound
[6] = system: histone H2B-HaloTag fusion; test: labeling of cells expressing histone H2B-HaloTag fusion and imaging; type: cell-based, mammalian cell; settings: 10 pM, 30 min, washed 30 minutes
Sox2-HaloTag fusions = test: live-cell single-particle tracking of HaloTag ligands; type: cell-based; settings: HaloTag conjugates; for brightness in cells (photons/s): equivalent imaging conditions
[7] = deuterated vs nondeuterated TMR

Compound: [2H]C([2H])([2H])N(c1ccc2c(-c3ccccc3C(=O)[O-])c3ccc(=[N+](C([2H])([2H])[2H])C([2H])([2H])[2H])cc-3oc2c1)C([2H])([2H])[2H] [Compound 14, 2-(3,6-Bis(bis(methyl-d3)amino)xanthylium-9-yl)benzoate]
- absorption and emission maxima / spectral shape compared to nondeuterated parent [1]: remarkably similar
- increase in extinction coefficient at λmax (ε) compared to 1 [1, 7]: ~20%
- increase in fluorescence quantum yield (Φ) compared to 1 [1, 7]: ~20%
- photobleaching / in vitro photostability compared to nondeuterated parent [2]: slower rate of photobleaching

Compound: O=C1OC2(c3ccc(N4CCC4)cc3Oc3cc(N4CCC4)ccc32)c2ccccc21 [Compound 15, reference compound]
- blue-shift of fluorescence emission during photobleaching due to dealkylation [2]: 9 nm

Compound: [2H]C1([2H])N(c2ccc3c(-c4ccccc4C(=O)[O-])c4ccc(=[N+]5C([2H])([2H])C([2H])([2H])C5([2H])[2H])cc-4oc3c2)C([2H])([2H])C1([2H])[2H] [Compound 16, 2-(3,6-Bis(azetidin-1-yl-d6)xanthylium-9-yl)benzoate]
- extinction coefficient (ε) compared to nondeuterated parent [1]: no improvement
- fluorescence quantum yield (Φ) compared to nondeuterated parent [1]: no improvement
- photobleaching / in vitro photostability compared to nondeuterated parent [2]: no improvement
- blue-shift of fluorescence emission during photobleaching due to dealkylation [2]: 4 nm
- singlet oxygen (1O2) quantum yield compared to nondeuterated parent [3]: significantly lower

Compound: [2H]C1([2H])N(c2ccc3c(-c4ccccc4C(=O)[O-])c4ccc(=[N+]5C([2H])([2H])C([2H])([2H])C([2H])([2H])C5([2H])[2H])cc-4oc3c2)C([2H])([2H])C([2H])([2H])C1([2H])[2H] [Compound 18, 2-(3,6-Bis(pyrrolidin-1-yl-d8)xanthylium-9-yl)benzoate]
- absorption and emission maxima / spectral shape compared to nondeuterated parent [1]: no change in spectral shape
- intrinsic brightness (ε×Φ) [1]: equivalent brightness
- extinction coefficient (ε) compared to nondeuterated parent [1]: increases
- fluorescence quantum yield (Φ) compared to nondeuterated parent [1]: increases
- chromostability during bleaching [2]: higher
- photobleaching / in vitro photostability compared to nondeuterated parent [2]: improved in vitro photostability

Compound: [2H]C1([2H])N(c2ccc3c(-c4ccccc4C(=O)[O-])c4ccc(=[N+]5C([2H])([2H])C([2H])([2H])C([2H])([2H])C([2H])([2H])C5([2H])[2H])cc-4oc3c2)C([2H])([2H])C([2H])([2H])C([2H])([2H])C1([2H])[2H] [Compound 20, 2-(3,6-Bis(piperidin-1-yl-d10)xanthylium-9-yl)benzoate]
- absorption and emission maxima / spectral shape compared to nondeuterated parent [1]: no change in spectral shape
- extinction coefficient (ε) compared to nondeuterated parent [1]: increases
- fluorescence quantum yield (Φ) compared to nondeuterated parent [1]: increases
- chromostability during bleaching [2]: higher

Compound: [2H]C1([2H])OC([2H])([2H])C([2H])([2H])N(c2ccc3c(-c4ccccc4C(=O)[O-])c4ccc(=[N+]5C([2H])([2H])C([2H])([2H])OC([2H])([2H])C5([2H])[2H])cc-4oc3c2)C1([2H])[2H] [Compound 22, 2-(3,6-Bis(morpholino-d8)xanthylium-9-yl)benzoate]
- absorption and emission maxima / spectral shape compared to nondeuterated parent [1]: no change in spectral shape
- extinction coefficient (ε) compared to nondeuterated parent [1]: increases
- fluorescence quantum yield (Φ) compared to nondeuterated parent [1]: increases

Compound: [2H]C1([2H])N(c2ccc3c(-c4cc(C(=O)NCCOCCOCCCCCCCl)ccc4C(=O)[O-])c4ccc(=[N+]5C([2H])([2H])C([2H])([2H])C5([2H])[2H])cc-4oc3c2)C([2H])([2H])C1([2H])[2H] [Compound 24, 2-(3,6-Bis(azetidin-1-yl-d6)xanthylium-9-yl)-4-((2-(2-((6-chlorohexyl)oxy)ethoxy)ethyl)carbamoyl)benzoate]
- 1O2 generation of HaloTag-bound ligand compared to nondeuterated ligand (HaloTag protein [4]): significantly suppressed
- fluorescence quantum yield of HaloTag conjugate compared to nondeuterated ligand (HaloTag protein [5]): higher
- fluorescence lifetime (τ) of HaloTag conjugate in cells compared to nondeuterated ligand (histone H2B-HaloTag): longer
- labeling of HaloTag-histone H2B fusions in living cells [6]: could label
- photostability in cells (average track length of individual molecules) (Sox2-HaloTag fusions): no improvement
- brightness in cells (photons/s) (Sox2-HaloTag fusions): higher brightness

Compound: [2H]C1([2H])N(c2ccc3c(-c4cc(C(=O)NCCOCCOCCCCCCCl)ccc4C(=O)[O-])c4ccc(=[N+]5C([2H])([2H])C([2H])([2H])C([2H])([2H])C5([2H])[2H])cc-4oc3c2)C([2H])([2H])C([2H])([2H])C1([2H])[2H] [Compound 25, 2-(3,6-Bis(pyrrolidin-1-yl-d8)xanthylium-9-yl)-4-((2-(2-((6-chlorohexyl)oxy)ethoxy)ethyl)carbamoyl)benzoate]
- labeling of HaloTag-histone H2B fusions in living cells [6]: excellent live-cell label
- photostability in cells (average track length of individual molecules) (Sox2-HaloTag fusions): significantly longer tracks
- brightness in cells (photons/s) (Sox2-HaloTag fusions): higher brightness

Compound: [2H]C1([2H])N(c2ccc3c(c2)C(C)(C)C2=CC(=[N+]4C([2H])([2H])C([2H])([2H])C4([2H])[2H])C=CC2=C3c2ccccc2C(=O)[O-])C([2H])([2H])C1([2H])[2H] [Compound 27, 2-(3,6-Bis(azetidin-1-yl-d6)-10,10-dimethylanthracen-9-ylium-9(10H)-yl)benzoate]
- extinction coefficient (ε) compared to nondeuterated parent [1]: substantial increases
- fluorescence quantum yield (Φ) compared to nondeuterated parent [1]: substantial increases

Compound: [2H]C1([2H])N(c2ccc3c(c2)C(C)(C)C2=CC(=[N+]4C([2H])([2H])C([2H])([2H])C([2H])([2H])C4([2H])[2H])C=CC2=C3c2ccccc2C(=O)[O-])C([2H])([2H])C([2H])([2H])C1([2H])[2H] [Compound 29, 2-(10,10-Dimethyl-3,6-bis(pyrrolidin-1-yl-d8)anthracen-9-ylium-9(10H)-yl)benzoate]
- extinction coefficient (ε) compared to nondeuterated parent [1]: substantial increases
- fluorescence quantum yield (Φ) compared to nondeuterated parent [1]: substantial increases

Compound: [2H]C1([2H])N(c2ccc3c(c2)[Si](C)(C)C2=CC(=[N+]4C([2H])([2H])C([2H])([2H])C4([2H])[2H])C=CC2=C3c2ccccc2C(=O)[O-])C([2H])([2H])C1([2H])[2H] [Compound 31, 2-(3,7-Bis(azetidin-1-yl-d6)-5,5-dimethyldibenzo[b,e]silin-10-ylium-10(5B)-yl)benzoate]
- intrinsic brightness (ε×Φ) [1]: increase
- extinction coefficient (ε) compared to nondeuterated parent [1]: modestly increased
- fluorescence quantum yield (Φ) compared to nondeuterated parent [1]: did not elicit a large increase

Compound: [2H]C1([2H])N(c2ccc3c(c2)[Si](C)(C)C2=CC(=[N+]4C([2H])([2H])C([2H])([2H])C([2H])([2H])C4([2H])[2H])C=CC2=C3c2ccccc2C(=O)[O-])C([2H])([2H])C([2H])([2H])C1([2H])[2H] [Compound 33, 2-(5,5-Dimethyl-3,7-bis(pyrrolidin-1-yl-d8)dibenzo[b,e]silin-10-ylium-10(5H)-yl)benzoate]
- extinction coefficient (ε) compared to nondeuterated parent [1]: substantial increase
- fluorescence quantum yield (Φ) compared to nondeuterated parent [1]: substantial increase

Compound: [2H]C1([2H])N(c2ccc3c(c2)[Si](C)(C)C2=CC(=[N+]4C([2H])([2H])C([2H])([2H])C4([2H])[2H])C=CC2=C3c2cc(C(=O)NCCOCCOCCCCCCCl)ccc2C(=O)[O-])C([2H])([2H])C1([2H])[2H] [Compound 37, 2-(3,7-Bis(azetidin-1-yl-d6)-5,5-dimethyldibenzo[b,e]silin-10-ylium-10(51)-yl)-4-((2-(2-((6-chlorohexyl)oxy)ethoxy)ethyl)carbamoyl)benzoate]
- 1O2 generation of HaloTag-bound ligand compared to nondeuterated ligand (HaloTag protein [4]): lower
- fluorescence quantum yield of HaloTag conjugate compared to nondeuterated ligand (HaloTag protein [5]): substantial increase
- fluorescence lifetime (τ) of HaloTag conjugate in cells compared to nondeuterated ligand (histone H2B-HaloTag): increased
- labeling of HaloTag-histone H2B fusions in living cells [6]: suitable labels
- photostability in cells (average track length of individual molecules) (Sox2-HaloTag fusions): more photostable
- brightness in cells (photons/s) (Sox2-HaloTag fusions): higher brightness

Compound: [2H]C1([2H])N(c2ccc3c(c2)[Si](C)(C)C2=CC(=[N+]4C([2H])([2H])C([2H])([2H])C([2H])([2H])C4([2H])[2H])C=CC2=C3c2cc(C(=O)NCCOCCOCCCCCCCl)ccc2C(=O)[O-])C([2H])([2H])C([2H])([2H])C1([2H])[2H] [Compound 38, 4-((2-(2-((6-Chlorohexyl)oxy)ethoxy)ethyl)carbamoyl)-2-(5,5-dimethyl-3,7-bis(pyrrolidin-1-yl-d8)dibenzo[b,e]silin-10-ylium-10(5H)-yl)benzoate]
- labeling of HaloTag-histone H2B fusions in living cells [6]: improved cellular labeling
- photostability in cells (average track length of individual molecules) (Sox2-HaloTag fusions): more photostable; also recorded: longest average single-molecule track length
- brightness in cells (photons/s) (Sox2-HaloTag fusions): highest photons/s

Compound: [2H]C1([2H])N(c2ccc3c(C)cc(=O)oc3c2)C([2H])([2H])C1([2H])[2H] [Compound 40, 7-(Azetidin-1-yl-d6)-4-methyl-2H-chromen-2-one]
- extinction coefficient (ε) compared to nondeuterated parent [1]: similar
- fluorescence quantum yield (Φ) compared to nondeuterated parent [1]: small decrease

Compound: [2H]C1([2H])N(c2ccc3c(C)cc(=O)oc3c2)C([2H])([2H])C([2H])([2H])C1([2H])[2H] [Compound 42, 4-Methyl-7-(pyrrolidin-1-yl-d8)-2H-chromen-2-one]
- extinction coefficient (ε) compared to nondeuterated parent [1]: equivalent
- fluorescence quantum yield (Φ) compared to nondeuterated parent [1]: significantly higher

Compound: [2H]C1([2H])N(c2ccc3nc4ccc(=[N+]5C([2H])([2H])C([2H])([2H])C([2H])([2H])C5([2H])[2H])cc-4oc3c2)C([2H])([2H])C([2H])([2H])C1([2H])[2H] [Compound 44, 3,7-Bis(pyrrolidin-1-yl-d8)phenoxazin-5-ium trifluoroacetate]
- fluorescence quantum yield (Φ) compared to nondeuterated parent [1]: substantial increase
